Columns and labels:
Type in all cases: cell-based
mouse spleen cells = test: Proliferation of IL-4/anti-CD40 Ab-stimulated mouse spleen cells; settings: read-out: anti-proliferative potency
Experimental: BALB/c spleen cells were cultured for 20 hours in the presence of stimulus+/−AVP 893 (100 ng/ml) and harvested and prepared as described in FIG. 17. Stimulus conditions include: LPS (10 μg/ml), IL-4 (10 ng/ml) plus anti-CD40 Ab (100 ng/ml), PMA (10 ng/ml) plus ionomycin (100 nM), or Con A (5 μg/ml). […] This experiment was carried out as described for FIG. 21, except that different AVP compounds with high (AVP 893, 5 nM), medium (AVP 26297, 50 nM), and low (AVP 25630, 500 nM) anti-proliferative potency were tested and compared. AVP 893 was tested at 1, 10, and 100 ng/ml; AVP 26297 was tested at 1, 10, 100, and 1000 ng/ml; AVP 25630 was tested at 10, 100, and 1000 ng/ml.

HSV-2 = test: Spread of HSV-2 in infected cultures (glycoprotein E labeling); settings: 300 ng/ml applied 16 hr prior to virus inoculation
Experimental: The effect of AVP 893 on the spread of viral infection was further investigated. AVP 893 (at 300 ng/ml) was applied 16 hr prior to virus inoculation. Time points shown in FIG. 45 represent the hours after virus inoculation. […] In addition to the immunocytochemistry work shown in FIG. 45, extensive in vitro plaque assays were performed on HSV-1 and -2, as well as other families of virus that use the golgi in their life cycle (see Table 2).
We determined whether viral particles (as visualized in FIG. 45 by labeling HSV-2 glycoprotein E) spread beyond the initial site of infection in the presence of AVP 893. HSV-2-infected cultures were treated with AVP 893. […] Other HSV proteins including gB, gD, and the capsid protein ICP5 were also examined with similar results (data not shown). […] Furthermore, AVP 893 didn't appear to stop the initial infection of the culture, only the subsequent spread of the virus.

Rab6 = Rab6 expression

O=C(Nc1ccc(-c2nc3cc(NC(=O)C4CCCCC4)ccc3[nH]2)cc1)C1CCCCC1 [AVP 893]
IC50 (mouse spleen cells): 5 nM
spread of HSV-2 beyond the initial site of infection (HSV-2): blocked the spread of HSV-2 virus particles
Rab6 expression (Rab6; 3T3 and PMA/ionomycin-stimulated spleen cells, overnight): suppressed Rab6 expression
Rab6 staining (Rab6; immunocytochemistry, even after 18 hrs): not diminished nor significantly altered

Source: US20050256179A1, “Selective pharmacologic inhibition of protein trafficking and related methods of treating human diseases” (priority 2003, published 2005)
